This assay has as its target MAT2A (Homo sapiens (Human), UniProt P31153). The assay can be described thus: MAT2A Biochemical Assay. To be noted: Biomol Green readout O.D.620; 1 uM start, 3-fold dilution, 10 doses; read-out: MAT2A enzymatic IC50. As to the method: Example A: MAT2A Biochemical Assay
Compounds described herein were tested as follows:
• (1). Prepared 1×Assay buffer. • (2). Preparation of compound concentration gradient: the compounds test condition were 1 uM start, 3-fold dilution, 10 doses, singlet or duplicate. 100× concentration compounds were prepared in 384-well plate. Then used Echo 550 to transfer 250 nl to a 384-reaction plate for later use. Added 250 nl of 100% DMSO to the negative and positive control wells. • (3). Prepared 1.67× final concentration enzyme solution with 1×Assay buffer. • (4). Added 15 μl of 1.67× Enzyme solution to the compound wells and positive control wells; added 15 μl of 1 Assay buffer to the negative control wells. • (5). Centrifuged at 1000 rpm for 30 seconds and incubate for 15 minutes. • (6). Prepared 2.5× final concentration Substrate mix solution with 1×Assay buffer. • (7). Added 10 μl of 2.5× final concentration Substrate mix solution to start the reaction. • (8). Centrifuged at 1000 rpm for 30 seconds and incubate for 150 minutes. • (9). Added 50 μl Biomol Green to stop the reaction, centrifuge at 1000 rpm for 30 seconds and incubate for 15 minutes. read O.D.620, process data.
• (1) Using GraphPad Prism 5. • (2) % Inh=(Max signal−Compound signal)/(Max signal−Min signal)*100. • (3) Max signal was obtained from the positive control wells. • (4) Min signal was obtained from the negative control wells.
Sequence of MAT2A (P31153 whole entry, species assumed): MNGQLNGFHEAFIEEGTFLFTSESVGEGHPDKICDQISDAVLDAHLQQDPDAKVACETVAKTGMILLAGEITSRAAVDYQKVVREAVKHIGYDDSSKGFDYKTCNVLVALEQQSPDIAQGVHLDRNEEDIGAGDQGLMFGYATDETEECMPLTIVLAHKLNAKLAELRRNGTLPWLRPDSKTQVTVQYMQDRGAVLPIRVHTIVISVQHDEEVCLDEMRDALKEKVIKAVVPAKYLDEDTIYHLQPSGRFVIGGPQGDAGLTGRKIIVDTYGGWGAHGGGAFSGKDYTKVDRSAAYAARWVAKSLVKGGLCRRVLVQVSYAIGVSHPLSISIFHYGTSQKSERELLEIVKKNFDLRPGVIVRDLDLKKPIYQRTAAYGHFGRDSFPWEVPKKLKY
`C#CC1(Nc2nc(=O)n(-c3cnccn3)c3cc(C(F)(F)F)ccc23)CC1` [Example 69, 4-((1-ethynylcyclopropyl)amino)-1-(pyrazin-2-yl)-7-(trifluoromethyl)quinazolin-2 (1H)-one]: the IC50 was below 50 nM.

For the compound `C#CCCCNc1nc(=O)n(-c2cccnc2)c2cc(Cl)ccc12` [Example 6, 7-chloro-4-(pent-4-yn-1-ylamino)-1-(pyridin-3-yl)quinazolin-2 (1H)-one], the half-inhibitory concentration (IC50) is below 50 nM.

Turning to `C#CC1CCN(c2nc(=O)n(-c3ccccc3Cl)c3cc(Cl)ccc23)CC1` [Example 13, 7-chloro-1-(2-chlorophenyl)-4-(4-ethynylpiperidin-1-yl)quinazolin-2 (1H)-one], the IC50 is above 1000 nM.

As to `C#CC1(Nc2nc(=O)n(-c3cccnn3)c3nc(C(F)(F)F)ccc23)CC1` [Example 70, 4-((1-ethynylcyclopropyl)amino)-1-(pyridazin-3-yl)-7-(trifluoromethyl)pyrido[2,3-d]pyrimidin-2 (1H)-one], the IC50 was below 50 nM.

As for `C#CC(C)Nc1nc(=O)n(-c2cccnc2C)c2cc(C(F)(F)F)cc(OC)c12` (stereo not shown) [Example 37], the IC50 is below 50 nM.

On to `C#CC1(Nc2nc(=O)n(-c3cccnc3)c3cc(C(F)(F)F)ccc23)CC1` [Example 67], for which the IC50 is below 50 nM.

In the case of `C#CCNc1nc(=O)n(-c2cccnc2C(C)C)c2cc(C(F)(F)F)ccc12` [Example 45, 1-(2-isopropylpyridin-3-yl)-4-(prop-2-yn-1-ylamino)-7-(trifluoromethyl)quinazolin-2 (1H)-one], the IC50 is below 50 nM.

For `C=CCNc1nc(=O)n(-c2cccnc2C)c2cc(C(F)(F)F)cc(OC)c12` [Example 77], the concentration for half-maximal inhibition (IC50) was below 50 nM.

Turning to `C#CCN(C)c1nc(=O)n(-c2cccnc2)c2cc(C(F)(F)F)ccc12` [Example 51], the IC50 was below 50 nM.

Consider `C#CCNc1nc(=O)n(-c2cccnc2C)c2cc(Cl)cc(OC)c12` [Example 22, 7-chloro-5-methoxy-1-(2-methylpyridin-3-yl)-4-(prop-2-yn-1-ylamino)quinazolin-2 (1H)-one], for which the IC50 was below 50 nM.

For the compound `C#CC1(Nc2nc(=O)n(-c3cnccn3)c3cc(Cl)cc(OC)c23)CC1` [Example 24, 7-chloro-4-((1-ethynylcyclopropyl)amino)-5-methoxy-1-(pyrazin-2-yl)quinazolin-2 (1H)-one], the IC50 is below 50 nM.

Consider `C#CCNc1nc(=O)n(-c2cccnc2)c2cc(C(F)(F)F)cc(OC)c12` [Example 34, 5-methoxy-4-(prop-2-yn-1-ylamino)-1-(pyridin-3-yl)-7-(trifluoromethyl)quinazolin-2 (1H)-one], for which the half-inhibitory concentration (IC50) is below 50 nM.

`C=CCNc1nc(=O)n(-c2cccnc2)c2cc(Cl)cc(OC)c12` [Example 73]: the 50% inhibitory concentration (IC50) was below 50 nM.

For `C#CCCNc1nc(=O)n(-c2ccccc2Cl)c2cc(Cl)ccc12` [Example 8, 4-(but-3-yn-1-ylamino)-7-chloro-1-(2-chlorophenyl)quinazolin-2 (1H)-one], the IC50 is below 50 nM.

For the compound `C#CCNc1nc(=O)n(-c2cnccn2)c2cc(C(F)(F)F)ccc12` [Example 53, 4-(prop-2-yn-1-ylamino)-1-(pyrazin-2-yl)-7-(trifluoromethyl)quinazolin-2 (1H)-one], the IC50 was below 50 nM.

For `C#CC1(Nc2nc(=O)n(-c3cccnc3)c3cc(C(F)(F)F)cnc23)CC1` [Example 56, 4-((1-ethynylcyclopropyl)amino)-1-(pyridin-3-yl)-7-(trifluoromethyl)pyrido[3,2-d]pyrimidin-2 (1H)-one], the IC50 was above 1000 nM.

`C#CCNc1nc(=O)n(-c2c(C)ccnc2C)c2cc(C(F)(F)F)ccc12` [Example 52, 1-(2,4-dimethylpyridin-3-yl)-4-(prop-2-yn-1-ylamino)-7-(trifluoromethyl)quinazolin-2 (11H)-one]: the 50% inhibitory concentration (IC50) was below 50 nM.

For `C#CC(C)Nc1nc(=O)n(-c2cccnc2)c2cc(C(F)(F)F)ccc12` (stereo not shown) [Example 64], the half-inhibitory concentration (IC50) is below 50 nM.

As for `C=CCNc1nc(=O)n(-c2cccnc2)c2cc(C(F)(F)F)ccc12` [Example 76], the half-inhibitory concentration (IC50) is below 50 nM.

In the case of `C#CCNc1nc(=O)n(-c2cccnc2)c2cc(Cl)cc(OC)c12` [Example 20, 7-chloro-5-methoxy-4-(prop-2-yn-1-ylamino)-1-(pyridin-3-yl)quinazolin-2 (1H)-one], the concentration for half-maximal inhibition (IC50) is below 50 nM.

For the compound `C#CCNc1nc(=O)n(-c2cccnc2)c2nc(C(F)(F)F)ccc12` [Example 57, 4-(prop-2-yn-1-ylamino)-1-(pyridin-3-yl)-7-(trifluoromethyl)pyrido[2,3-d]pyrimidin-2 (1H)-one], the half-maximal inhibitory concentration (IC50) was below 50 nM.

As for `C#CCNc1nc(=O)n(-c2cccnc2)c2cc(C(F)(F)F)cc(OCF)c12` [Example 38, 5-(fluoromethoxy)-4-(prop-2-yn-1-ylamino)-1-(pyridin-3-yl)-7-(trifluoromethyl)quinazolin-2 (1H)-one], the concentration for half-maximal inhibition (IC50) was below 50 nM.

The values are drawn from patent US20250042890A1, “METHIONINE ADENOSYLTRANSFERASE 2a (MAT2A) INHIBITORS AND USES THEREOF” (Insilico Medicine IP Limited, priority 2021, published 2025).
